Calls of active or inactive are those of the source. No cut-off for these calls is given here.

The record followed here is ChEMBL document CHEMBL3227920, “Synthesis and activities of antitumor agents” (J Med Chem, 1979).

Data set [1] has as its system L1210. As to the kind of experiment: Antitumor activity against mouse L1210 cells allografted in BDF1 mouse assessed as mean survival days at 8 mg/kg, ip qd for 3 days. Format: functional. The settings on record: route intraperitoneal.
For data set [2], the system named is L1210. As to the kind of experiment: Antitumor activity against mouse L1210 cells allografted in BDF1 mouse assessed as increase in life span at 8 mg/kg, ip qd for 3 days relative to control. The format is functional. To be noted: route intraperitoneal.
Data set [3] relates to L1210. As to the kind of experiment: Antitumor activity against mouse L1210 cells allografted in BDF1 mouse assessed as host survival at 8 mg/kg, ip qd for 3 days measured on day 60 relative to control. Format: functional, organism-based. Also on record: dose 8 mg/kg.
Data set [4] concerns L1210. As to the kind of experiment: Antitumor activity against mouse L1210 cells allografted in BDF1 mouse assessed as increase in life span at 10 mg/kg, ip qd for 3 days relative to control. Format: functional. To be noted: route intraperitoneal.
Data set [5] relates to L1210. As to the kind of experiment: Antitumor activity against mouse L1210 cells allografted in BDF1 mouse assessed as mean survival days at 10 mg/kg, ip qd for 3 days. Format: functional. To be noted: route intraperitoneal.
The test system of data set [6] is L1210. Nature of the data set: Antitumor activity against mouse L1210 cells allografted in BDF1 mouse assessed as mean survival days at 10 mg/kg, ip qd for 3 days relative to control. Format: functional. The settings on record: route intraperitoneal.
In data set [7] the test system is L1210. Nature of the data set: Antitumor activity against mouse L1210 cells allografted in BDF1 mouse assessed as mean survival days at 8 mg/kg, ip qd for 3 days relative to control. The format is functional. To be noted: route intraperitoneal.
Data set [8] has as its system L1210. Nature of the data set: Antitumor activity against mouse L1210 cells allografted in BDF1 mouse assessed as increase in life span at 20 mg/kg, ip qd for 3 days relative to control. Format: functional. To be noted: route intraperitoneal.
Data set [9] has as its system L1210. As to the kind of experiment: Antitumor activity against mouse L1210 cells allografted in BDF1 mouse assessed as mean survival days at 20 mg/kg, ip qd for 3 days relative to control. The format is functional. To be noted: route intraperitoneal.
The test system of data set [10] is Mus musculus. Nature of the data set: Toxicity in mouse L1210 cells allografted BDF1 mouse assessed as congestive liver at 40 mg/kg, ip qd for 3 days. Set-up: dose 40 mg/kg, route intraperitoneal. To be noted: in vivo, 72 h. The format is organism-based.
Data set [11] deals with Mus musculus. As to the kind of experiment: Toxicity in mouse L1210 cells allografted BDF1 mouse assessed as atrophic spleen at 40 mg/kg, ip qd for 3 days. Format: organism-based. Also on record: dose 40 mg/kg, route intraperitoneal. The settings on record: in vivo, 72 h.
Data set [12] concerns L1210. As to the kind of experiment: Antitumor activity against mouse L1210 cells allografted in BDF1 mouse assessed as mean survival days at 20 mg/kg, ip qd for 3 days. The format is functional. The settings on record: route intraperitoneal.
Data set [13] deals with Mus musculus. Nature of the data set: Toxicity in mouse L1210 cells allografted BDF1 mouse assessed as atrophic liver at 20 mg/kg, ip qd for 3 days. The format is organism-based. Also on record: dose 20 mg/kg, route intraperitoneal. To be noted: in vivo, 72 h.

Consider `O=NN(CCCl)C(=O)N[C@@H]1O[C@H](CO)[C@@H](O)[C@H](O)[C@H]1O`, for which the Survival in the data set with L1210 [1] was determined as 60 days. The Activity with L1210 [2] amounted to 512.2%. Moreover, the outcome in the data set with L1210 [3] was Active.

On to `O=NN(CCCl)C(=O)N[C@@H]1O[C@H](CO)[C@@H](O)[C@H](O)[C@@H]1O`, for which the Survival with L1210 [1] was 18.3 days. In the data set with L1210 [2], the Activity is 103.3%. Further, the outcome in the data set with L1210 [3] was inactive.

Consider `O=NN(CCCl)C(=O)N[C@@H]1O[C@H](CO)[C@@H](O[C@@H]2O[C@H](CO)[C@H](O)[C@H](O)[C@H]2O)[C@H](O)[C@H]1O`, for which the Activity in the data set on L1210 [4] is 384.5%. Further, in the data set with L1210 [5], the Survival was 47 days. Besides, the T/C in the data set with L1210 [6] amounted to 9.7.

Consider `O=NN(CCCl)C(=O)N[C@@H]1OC[C@@H](O)[C@H](O)[C@H]1O`, for which the T/C in the data set on L1210 [7] was determined as 11. The Survival with L1210 [1] is 60 days. For the same compound, in the data set on L1210 [2], the Activity was determined as 445.5%. For the same compound, in the data set on L1210 [3], the outcome was Active.

With `O=NN(CCCl)C(=O)N[C@@H]1O[C@H](CO)[C@H](O)[C@H](O)[C@H]1O`, the Survival in the data set with L1210 [1] came to 47 days. Also, the Activity with L1210 [2] was 405.4%.

`O=NN(CCCl)C(=O)N[C@@H]1O[C@H](CO)[C@@H](O[C@@H]2O[C@H](CO)[C@@H](O)[C@H](O)[C@H]2O)[C@H](O)[C@H]1O`: the T/C in the data set with L1210 [7] amounted to 7.2. For the same compound, the Survival in the data set with L1210 [1] was 42 days. For the same compound, the Activity with L1210 [2] came out at 483.3%.

For `O=NN(CCCl)C(=O)N[C@@H]1O[C@H](CO)[C@@H](O[C@H]2O[C@H](CO)[C@@H](O)[C@H](O)[C@H]2O)[C@H](O)[C@H]1O`, the Activity was 403.3% in the data set on L1210 [8], “Toxic” with Mus musculus [10], “Toxic” in the data set with Mus musculus [11] and “Toxic” in the data set with Mus musculus [13]. In addition, in the data set on L1210 [9], the T/C is listed as 9. In addition, the Survival in the data set on L1210 [12] was 45.3 days.
